Test results as given in paper PMC4274890 (Emerging Microbes & Infections, 2014).

Key:
SH5190 [1] = type: cell-based, A/Shanghai/5190/2013(H7N9)
SH5190 [2] = type: cell-based, A/Shanghai/5190/2013(H7N9); remark: listed apart in the source

Row | SMILES | plaque mean diameter (SH5190 [1]) | times more potent than T-705 and ribavirin (SH5190 [2])
1 | CCC(CC)O[C@@H]1C=C(C(=O)O)C[C@H](N)[C@H]1NC(C)=O [Oseltamivir carboxylate] | < 0.1 mm | –
2 | CC(=O)Oc1ccccc1C(=O)Nc1ncc([N+](=O)[O-])s1 [NT-300, nitazoxanide] | – | over 25 times
